Test results: patent US10550399B2, “Plant transformation method using plant growth inhibiting hormone” (KANEKA CORPORATION, priority 2012, dated 2020)

What was measured:
wheat seeds [1] = test: In planta Agrobacterium (LBA4404, pIG121-1) transformation of wheat seeds under application of a plant growth-inhibiting hormone; type: in vivo, wheat (Triticum aestivum L.); conditions: for Transformation efficiency (T0 generation×T1 generation): hormone 100 μM in bacterial solution, variety Yumechikara, shoot length about 2 mm, soaked about 20 min, co-culture 22° C. 2 days
Protocol: Transformation efficiency for the transformed plant thus obtained can be determined. Transformation efficiency (T0 generation×T1 generation) is determined by multiplying transformation efficiency for the T0 generation (the number of transformed plants of T0 generation/the number of plants subjected to transformation) and transformation efficiency for the T1 generation (the number of transformed plants of T1 generation/(the number of plants of T1 generation subjected to the verification for incorporation of foreign genes into genomes).
The Agrobacterium into which pIG121-1 had been introduced prepared above were cultured in LB medium containing kanamycin and streptomycin (50 mg/1 each) at 28° C. for 18 hours to prepare an Agrobacterium solution. Through this culture, the transformed Agrobacterium carrying pIG121-1 were selected on the basis of functions of the kanamycin resistance gene and the streptomycin resistance gene existing outside the T-DNA region of pIG121-1.
Abscisic acid (final concentration: 100 μM) was added to the bacterial solution prepared in the manner described above, and the resulting bacterial solution was used below as an Agrobacterium solution for inoculation.
Pretreatment of seeds was carried out by soaking wheat seeds (variety: Yumechikara (Wheat Nourin 172)) in 70% ethanol for 5 minutes, followed by shaking in a 20% antiformin solution for 10 minutes. The seeds were washed with water to remove the antiformin solution, wrapped in moistened Kim towel, and then cultured at 25° C. for 36 to 40 hours for germination.
Subsequently, a portion around the shoot of the seed (shoot length: about 2 mm) was pierced with a needle (diameter: 0.71 mm) to a depth of about 1 mm to provide a pore. The seeds with thus wounded meristems were soaked in the Agrobacterium solution prepared above for about 20 minutes to inoculate the seeds with the Agrobacterium. Thereafter, the seeds were removed from the Agrobacterium solution, mounted on moistened Kim towel, and then cultured in a covered petri dish at 22° C. for 2 days (co-culture). Thus, the seeds were infected with Agrobacterium. Next, in order to disinfect Agrobacterium, the co-cultured seeds were soaked in an aqueous solution of cefotaxime (1,000 ppm) and then shaken at room temperature for 2 hours. Subsequently, the seeds were removed from the aqueous solution of cefotaxime, mounted on moistened Kim towel, and then grown in a covered petri dish at 25° C. for 2 days. The seeds were transferred to a pot containing culture soil and then grown at 25° C. under the long-day conditions (a light period of 16 hours and a dark period of 8 hours).
When the seeds grew to the 5- to 6-leaf stage, genome PCR was carried out to select transformants.
Considering that Yumechikara is an autumn wheat variety, the obtained transformants were subjected to vernalization at 4° C. for 1.5 months to facilitate flower bud formation. Subsequently, the transformants (T0 generation) were self-crossed to obtain T1 seeds, and gene introduction and gene expression in the T1 generation were verified.
Gene introduction at the T1 generation was verified via genome PCR under the same conditions as with the case of the T0 generation. […] A band of interest was detected in 3 of the 14 individuals subjected to the genome PCR.
Jasmonic acid (final concentration: 100 μM) was added to the bacterial solution prepared in the manner described above, and the resulting bacterial solution was used below as an Agrobacterium solution for inoculation.
Subsequently, a portion around the shoot of the seed (shoot length: about 2 mm) was pierced with a needle (diameter: 0.71 mm) to a depth of about 1 mm to provide a pore. The seeds with thus wound meristems were soaked in the Agrobacterium solution prepared above for about 20 minutes to inoculate the seeds with the Agrobacterium. […]

wheat seeds [2] = test: as above; type: in vivo, wheat (Triticum aestivum L.)
[3] = test system: soybeans, variety "Toyomusume"; test: In planta Agrobacterium (LBA4404, pIG121-1) transformation of soybean axillary buds with abscisic acid; type: in vivo, soybean (Glycine max); conditions: abscisic acid 100 μM, axillary buds of plants 14 days after germination
Protocol: Plant transformation was carried out in the same manner as in Example 1, except that a variety “Toyomusume” of soybeans was used and axillary buds of the plants 14 days after germination were inoculated with Agrobacterium, and then gene introduction and gene expression in the T0 generation were verified.

maize seed = test: In planta transformation of maize seeds using pIG121-1-carrying Agrobacterium with abscisic acid; type: in vivo, maize (Zea mays); conditions: abscisic acid 100 μM
Protocol: Seeds of maize (Zea mays) were washed with sterile water 2 or 3 times to wash the red disinfectant away from the seed coat. The washed seeds were soaked in sterile water and incubated at 25° C. for 2 days. Water was exchanged with fresh water once during incubation. Thus, the seeds absorbed water and the embryonic portions became white. These seeds were used for the experiment described below. A bacterial solution containing pIG121-1-carrying Agrobacterium and abscisic acid (final concentration: 100 μM) was prepared as an Agrobacterium solution for inoculation in the same manner as in Example 1.
With the use of a needle (φ 0.71 mm), the shoot (length: 1 mm) of the embryo (longer diameter: about 1 cm) of the maize seed was pierced 4 times on the apex, in which the meristem was considered to be present, to a depth of 0.5 mm to 1 mm to provide 4 pores in an area of about 2 mm square. Thereafter, the Agrobacterium solution for inoculation prepared above was applied dropwise to the pores using a pipette to inoculate the seeds with Agrobacterium.
Subsequently, a filter paper was placed in a petri dish and moistened with water. The maize seeds inoculated with Agrobacterium were placed on the filter paper and the petri dish was covered. The petri dish was then placed in an incubator at 25° C., and incubation was carried out in the dark for 2 days. After co-culture was conducted for 2 days, the seeds were sowed in culture soil and grown.
Gene introduction in the T0 generation was verified in the same manner as in Example 1. Plants (5-leaf stage) 20 days after transformation were used for genomic PCR. […] A 544-bp PCR product indicating GUS gene introduction was detected in 2 plants.

[4] = test system: soybeans, variety "Toyomusume"; test: In planta transformation of soybeans using the Agrobacterium tumefaciens M21 mutant with abscisic acid; type: in vivo, soybean (Glycine max); conditions: abscisic acid 100 μM
Protocol: Plant transformation was carried out in the same manner as in Example 8, except that the Agrobacterium tumefaciens M21 mutant was used, and then gene introduction in the T0 generation was verified.
The Agrobacterium tumefaciens M21 mutant (hereafter referred to as “the M21 mutant”) was obtained via mutation of the Agrobacterium tumefaciens A208 strain (C58 chromosome, nopaline T37 pTi) with the use of transposon 5 (Tn5) (Majumder, P. et al., J. Biosci. Bioeng., 90: 328-331, 2000; WO 2005/024034). In the M21 mutant, Tn5 is inserted into the tryptophan monooxygenase gene involved in biosynthesis of indoleacetic acid (IAA) in the T-DNA region of the Ti plasmid. This would cause hormone imbalance in plants transformed via infection with the M21 mutant, which would lead to phenotypic changes. Thus, the presence or absence of the transformation was easily determined via visual inspection.
Transformation efficiency (T0 generation) achieved by the method of the present invention was 75%.

[5] = abscisic acid 100 μM, Yumechikara, shoot about 2 mm, co-culture 22° C., genome PCR
[6] = 13 plants subjected to transformation
[7] = 12 plants subjected to transformation

| Compound | Transformation efficiency (T0) (wheat seeds [1]; [5]) | Transformation efficiency (T1) (wheat seeds [1]; [5]) | Individuals with band of interest, T1 generation (wheat seeds [1]; abscisic acid 100 μM, of the 14 individuals subjected to genome PCR) | Individuals with GUS gene band (544 bp), T0 generation (wheat seeds [1]; abscisic acid 100 μM, of the 14 transformed individuals, genome PCR) | Transformation efficiency (T0 generation×T1 generation) (wheat seeds [1]) | Transformation efficiency (T0 generation×T1 generation) (wheat seeds [2]; abscisic acid 100 μM and Tween 20 0.1%, Yumechikara, shoot 1 mm or less, vacuum treatment 20 min, co-culture 28° C.) | Transformation efficiency (T0 generation×T1 generation) (wheat seeds [2]; abscisic acid 100 μM, Tween 20 0.1%, acetosyringone 100 μM, Yumechikara, shoot 1 mm or less, vacuum treatment, co-culture 28° C.) | Transformation efficiency (T0 generation×T1 generation) (wheat seeds [2]; as Example 4 (abscisic acid 100 μM, Tween 20, acetosyringone, vacuum, 28° C.) but wheat variety Haruyokoi) | Transformation efficiency (T0 generation×T1 generation) (wheat seeds [2]; as Example 4 but 10 μM abscisic acid, Yumechikara) | Transformation efficiency (T0 generation×T1 generation) (wheat seeds [2]; as Example 4 but 300 μM abscisic acid, Yumechikara) | Transformation efficiency (T0 generation) [3] | Number of untransformed plants (maize seed; [6]) | Untransformed plants, percent (maize seed; [6]) | Number of transformed plants (maize seed; 13 plants subjected to transformation, 544-bp GUS PCR product) | Transformation efficiency (T0 generation) (maize seed; shoot 1 mm pierced 4 times, co-culture 25° C. 2 days, genomic PCR 20 days after transformation, 13 plants) | Number of transformed plants [4, 7] | Number of untransformed plants [4, 7] | Untransformed plants, percent [4, 7] | Transformation efficiency (T0 generation) ([4]; axillary buds, tumorigenesis by visual inspection, 12 plants) |
| --- | --- | --- | --- | --- | --- | --- | --- | --- | --- | --- | --- | --- | --- | --- | --- | --- | --- | --- | --- |
| CC1=CC(=O)CC(C)(C)[C@@]1(O)/C=C/C(C)=C\C(=O)O [abscisic acid] | 14.3% | 21.4% | 3 | 2 | 3.1% | 5.1% | 7.2% | 10.2% | 6.3% | 7.0% | 30% | 11 | 84.6% | 2 | 15.4% | 9 | 3 | 25% | 75% |
| CC/C=C\C[C@H]1C(=O)CC[C@@H]1CC(=O)O [jasmonic acid] | – | – | – | – | 2.4% | – | – | – | – | – | – | – | – | – | – | – | – | – | – |
